pIC50: −log10 of the molar value. Positions of bridges follow the written chain, without caps; N, C: chain ends. No end group written: not given here.
Key:
P2X7 in Neuro-2a cells [1] = assay: ATP-induced YO-PRO-1 uptake (P2X7 pore formation); format: cell-based, mouse; settings: short-term effect
Method: (§1) Neuro-2a neuroblastoma cells (ATCC® CCL-131™) were obtained from American Type Culture Collection (Manassas, VA, USA). The cells were cultivated in DMEM medium (BioloT, St. Petersburg, Russia) supplemented with 10% of fetal bovine serum (BioloT, St. Petersburg, Russia) and 1% penicillin/streptomycin (BioloT, St. Petersburg, Russia) at 37 °C and 5% CO2. Initially, cells were incubated in cultural flasks until sub-confluent (~80%). For testing, Neuro-2a cells were seeded in 96-well plates and experiments were started after 24 h.
Neuro-2a cells were seeded in 96 well plates at a density of 4 × 10^4 cells/well and incubated in DMEM for 24 h, 37 °C, 5% CO2. Then the cells were washed once with HBSS and filled with 180 μL of the same buffer. YO-PRO-1 (Sigma-Aldrich, St. Louis, MO, USA, 5 μM final concentration) was loaded into the wells, the cells were incubated for 15 min at 37 °C. Further, the studied peptides were added to the cells at concentrations of 10, 1, 0.1 and 0.01 μM and incubated for 10 min at 37 °C. After that ATP (4 mM final concentration) was added and the plates were incubated for an additional 10 min. The standard P2X7R inhibitor, A438079 (Sigma-Aldrich, St. Louis, MO, USA), was used as inhibitory control. Then the cells were washed three times with the buffer solution and fluorescence intensity was measured with PHERAstar FS plate reader (BMG, LABTECH, Ortenberg, Germany) at λex = 485 nm and λem= 520 nm in the “End Point” mode. The effectiveness of compounds was evaluated relative to control without ATP.
(§2) All data were obtained in three independent replicates and calculated values were expressed as mean ± standard error of the mean (SEM). The Student’s t-test was performed using SigmaPlot 14.0 (Systat Software Inc., San Jose, CA, USA) to determine statistical significance.

[2] = test system: Kv1.1, Kv1.2, Kv1.3 and Kv1.6 isoforms as well as insect Shaker IR; settings: range over channels and both peptides, ref [16],[25]; cited from earlier work
Source text: The studied peptides are analogs of sea anemone Kunitz-type peptides and attract our attention due to their wide spectrum of biological activity and ability to interact with important molecular targets.

P2X7 in Neuro-2a cells [3] = assay: ATP-induced Ca2+ influx (Fluo-8 AM); format: cell-based, mouse; settings: for reduction of calcium level: 30 min pre-incubation, 1 mM ATP
Method: as §1
Neuro-2a cells were seeded in 96-well plates at a density of 4 × 10^4 cells/well and incubated in DMEM for 24 h at 37 °C, 5% CO2. Then the cells were washed twice with culture medium and loaded with 5 μM Fluo-8 AM (Abcam, Cambridge, UK) dye and 1 μM Pluronic® F-127 (Sigma-Aldrich, St. Louis, MO, USA), and incubated for 40 min at 37 °C in HBSS: 140 mM NaCl, 5 mM KCl, 0.8 mM MgCl2, 2 mM CaCl2, 10 mM glucose, 10 mM HEPES, pH 7.4. Then the cells were washed two times with the same solution but without the fluorescent dye and treated with the studied peptides for 30 min at RT in the dark. In some experiments Ca^2+-free medium was used: 140 mM NaCl, 5 mM KCl, 0.8 mM MgCl2, 10 mM glucose, 10 mM HEPES, 5 mM EGTA, pH 7.4. ATP (1 mM final concentration) was added using a microinjector (20 μL/well) 10 s later the baseline recording and the readings were taken up to 50 s in 1 s intervals. The standard P2X7 inhibitor, A438079 (Sigma-Aldrich, St. Louis, MO, USA), was used as inhibitory control. Ionomycin (Sigma-Aldrich, St. Louis, MO, USA) and BHQ were used to generate a generic calcium signal in cells. 2,5,-di(t-butyl) hydroquinone (BHQ) was synthesized and kindly provided by Dr. Polonik S.N. (PIBOC FEBRAS). Fluo-8 was excited at 485 nm, and the emission at 520 nm was measured with a PHERAstar®FS plate reader (BMG LABTECH, Ortenberg, Germany). The data were processed by MARS Data Analysis v. 3.01R2 (BMG Labtech, Ortenberg, Germany). Mean values and standard error of peak height calcium were calculated.
as §2

P2X7 in Neuro-2a cells [4] = assay: P2X7 immunofluorescence / expression (confocal microscopy); format: cell-based, mouse; settings: 10 μM peptide, 24 h
Method: Neuro-2a cells on coverslips were washed once with PBS, fixed with cold 100% methanol for 5 min in an ice bath, and then washed (3 × 5 min) with PBS. For P2X7 receptor immunocytochemistry, cells were blocked with 10% bovine serum in PBS containing 0.1% Triton X-100 (1 h) and incubated with specific to P2X7 primary antibodies (1:1000; orb35965 Biorbyt Ltd., Cambridge, UK) overnight at 4 °C. Cells were washed with PBS (3 × 10 min) and incubated with Alexa Fluor 594-conjugated goat anti-rabbit secondary antibodies (1:200, Abcam plc, Cambridge, UK) for 2 h at room temperature. Cells were washed in PBS (3 × 10 min) before mounting. In control experiments, the primary antibody was omitted, and immunostaining was never observed. Neuro-2a cell fluorescence was studied using an LSM 710 META confocal laser scanning microscope (Carl Zeiss, Göttingen, Germany) equipped with an Ar laser with an effective power of 30 mW. The obtained images were analyzed using the ZEN 2.3 (blue edition) software (Carl Zeiss, Göttingen, Germany).

Neuro-2a cells = assay: Cytoprotection against ATP-induced cell death (MTT assay); format: cell-based, mouse; settings: long-time application of ATP (4 mM, 48 h)
Method: as §1
The cytoprotective effect of peptides was assessed in Neuro-2a cells using the MTT assay. In brief, an aliquot (180μL) of cell suspension with a nominal cell density of 3 × 10^4 cells/well was dispensed into 96-well plates. The cells were incubated for 24 h in a humidified atmosphere containing 5% CO2 to allow cell attachment. At the end of the preincubation period, ATP (Sigma-Aldrich, St. Louis, MO, USA) was added to the cells at a concentration of 4 mM. Studied peptides were added to the cells at concentrations of 0.1, 1.0 or 10.0 μM for 1h prior to the addition of ATP. After incubation for 48 h at 37 °C cell viability was detected using the MTT as described previously. The standard P2X7 inhibitor, A438079 (Sigma-Aldrich, St. Louis, MO, USA), at a concentration of 10 μM was used as a positive control.
as §2

## RGICSEPKVVGPCKAGLRRFYYDSETGECKPFIYGGCKGNKNNFETLHACRGICRA (disulfide 4-54, 13-37, 29-50 (inferred)) [HCRG1]
P2X7 in Neuro-2a cells [1]
  entry of YO-PRO-1 into cells (summary in discussion): regulating the entry of low molecular weight fluorescent dye YO-PRO-1 into cells
[2]
  pIC50: 6.40 to 7.92
P2X7 in Neuro-2a cells [3]; 0.1 μM peptide, mean ± SE, n = 3
  reduction of calcium level: 57.5 ± 11.6%
P2X7 in Neuro-2a cells [3]; 0.1–10 μM peptide
  reduction of calcium level: significantly reduced the calcium level
P2X7 in Neuro-2a cells [3]; short-term effect
  effect on Ca2+ influx (summary in discussion): a significant effect on Ca^2+ influx into cells
P2X7 in Neuro-2a cells [4]
  amount of P2X7 in Neuro-2a cells: significantly reduced the amount of P2X7 in Neuro-2a cells
P2X7 in Neuro-2a cells [4]; mean ± SE, n = 3, p < 0.05
  decrease in P2X7 fluorescence: 24.1 ± 3.2%
Neuro-2a cells
  protection from ATP-induced death: partially protected neuroblastoma cells from ATP-induced death
